Experimental data as given in PubChem BioAssay (NCI).
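These data come from cells grown in 96-well plates and exposed to compound for 48 hours at five concentrations. Here, GI50 denotes the concentration required for 50% inhibition of growth. The concentration for full growth arrest is given as TGI.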

Legend:
Assay in all cases: NCI anticancer screen, dose series, 48 h
M19-MEL melanoma = tested on: M19-MEL melanoma
MALME-3M melanoma = tested on: MALME-3M melanoma
NCI-H522 lung = tested on: NCI-H522 lung
SNB-78 CNS = tested on: SNB-78 CNS
HOP-18 NSCLC = tested on: HOP-18 NSCLC
OVCAR-8 ovarian = tested on: OVCAR-8 ovarian
KM20L2 colon = tested on: KM20L2 colon
HOP-62 NSCLC = tested on: HOP-62 NSCLC
HS 578T breast = tested on: HS 578T breast
T-47D breast = tested on: T-47D breast

Row | Compound | TGI (M19-MEL melanoma) [µM] | TGI (MALME-3M melanoma) [µM] | TGI (NCI-H522 lung) [µM] | TGI (SNB-78 CNS) [µM] | TGI (HOP-18 NSCLC) [µM] | TGI (OVCAR-8 ovarian) [µM] | TGI (KM20L2 colon) [µM] | TGI (HOP-62 NSCLC) [µM] | GI50 (M19-MEL melanoma) [µM] | GI50 (MALME-3M melanoma) [µM] | GI50 (KM20L2 colon) [µM] | GI50 (NCI-H522 lung) [µM] | GI50 (SNB-78 CNS) [µM] | GI50 (HOP-62 NSCLC) [µM] | GI50 (HOP-18 NSCLC) [µM] | GI50 (OVCAR-8 ovarian) [µM] | GI50 (HS 578T breast) [µM] | TGI (HS 578T breast) [µM] | GI50 (T-47D breast) [µM] | TGI (T-47D breast) [µM]
1 | COC(=O)/C(C#N)=C1\N=NNN1CCCN1CCOCC1 | > 100 | > 100 | > 100 | > 100 | > 100 | > 100 | – | – | – | – | – | – | – | – | – | – | – | – | – | –
2 | COc1cc2ccn3c4cc(OC)c(OC)cc4cc3c2cc1OC | > 100 | > 100 | > 100 | > 100 | – | > 100 | > 100 | > 100 | – | – | – | – | – | – | – | – | – | – | – | –
3 | S=C(Nc1ccccc1)Nc1[nH]c(=S)sc1-c1nc2ccccc2[nH]1 | > 100 | > 100 | > 100 | > 100 | > 100 | > 100 | – | 66.8 | – | – | – | – | – | – | – | – | – | – | – | –
4 | CC1CCC(O)C(C(O)CC2CC(=O)N(C)C(=O)C2)C1 (stereo not drawn) | > 100 | > 100 | > 100 | > 100 | > 100 | > 100 | > 100 | > 100 | – | – | – | – | – | – | – | – | – | – | – | –
5 | CC1OC(=O)N(CCCC=C2SCCCS2)C1=O (stereo not drawn) | > 100 | > 100 | > 100 | > 100 | > 100 | > 100 | > 100 | – | – | – | – | – | – | – | – | – | – | – | – | –
6 | CC(C)OP(=O)(CP(=O)(OC(C)C)OC(C)C)OC(C)C.[CH3][Sn]([Br])([Br])[Br] | > 100 | > 100 | > 100 | > 100 | > 100 | > 100 | > 100 | > 100 | > 100 | > 100 | > 100 | > 100 | > 100 | > 100 | > 100 | > 100 | – | – | – | –
7 | COc1cc2c3c(c1OC)-c1ccccc1C(C(OC(C)=O)c1ccccc1)C3N(C)CC2 (stereo not drawn) | > 100 | > 100 | > 100 | > 100 | > 100 | > 100 | > 100 | – | – | – | – | – | – | – | – | – | – | – | – | –
8 | O=C(O)c1cc(Cl)cc(NC(=O)C(Cl)Cl)c1Cl | > 100 | > 100 | > 100 | > 100 | > 100 | > 100 | > 100 | > 100 | – | – | – | – | – | – | – | – | – | – | – | –
9 | C/C(=N\NS(=O)(=O)c1ccc(C)cc1)c1ccc[n+]([O-])n1 | > 100 | – | > 100 | – | > 100 | > 100 | > 100 | > 100 | – | – | – | – | – | – | – | – | – | – | – | –
10 | CC1=C(C#N)C(N)=C2C(C)=C(C#N)C(N)=C12 | > 100 | > 100 | > 100 | > 100 | – | > 100 | > 100 | > 100 | – | – | – | – | – | – | – | – | – | – | – | –
11 | Cc1nnc2n1N=C(CC(=O)c1ccc(O)cc1O)CN2N | > 100 | > 100 | – | > 100 | – | – | > 100 | > 100 | – | – | – | – | – | – | – | – | – | – | – | –
12 | Cc1cc(N(CCC#N)S(=O)(=O)c2ccccc2)ccc1C=O | – | > 100 | > 100 | > 100 | > 100 | > 100 | > 100 | > 100 | – | – | – | – | – | – | – | – | – | – | – | –
13 | O=C1[C@H]2C(c3ccccc3)=NN(C(=O)c3ccccc3)[C@H]2C(=O)N1c1ccccc1 | – | > 100 | > 100 | – | > 100 | > 100 | – | > 100 | – | – | – | – | – | – | – | – | – | – | – | –
14 | CCOC(=O)/C=C1\Nc2ccccc2C(c2ccccc2)=NC1OC(C)=O (stereo not drawn) | > 100 | > 100 | > 100 | > 100 | – | > 100 | – | > 100 | – | – | – | – | – | – | – | – | – | – | – | –
15 | O=C(N[C@@H]1CCCc2ccccc21)[C@H](CCC(=O)N1CCN(C2CCCCC2)CC1)N1C(=O)[C@@H](N2C(=O)OC[C@@H]2c2ccccc2)[C@H]1/C=C/c1ccccc1 | – | 3.15 | 4.11 | – | – | 18.9 | – | 17.4 | – | 1.63 | – | 1.76 | – | 3.87 | – | 4.58 | 3.52 | 21.1 | 2.98 | 14.6
16 | CC(CC(=O)O)(CC(=O)O)C(=O)O | – | > 100 | > 100 | – | – | > 100 | – | > 100 | – | – | – | – | – | – | – | – | – | > 100 | – | > 100
17 | COc1ccc([Se]c2ccc(OC)cc2OC)c(OC)c1 | 87.1 | > 100 | 38.2 | 96.6 | 86 | > 100 | 31.6 | – | – | – | – | – | – | – | – | – | – | – | – | –
18 | Cc1ccc(NC(=O)CCC(=O)C2CC(=O)CC/C2=N\NC(=O)c2cc3ccccc3cc2O)cc1C (stereo not drawn) | 90.7 | 90.2 | 39.5 | > 100 | > 100 | > 100 | 87.9 | > 100 | – | – | – | – | – | – | – | – | – | – | – | –
19 | CCOP(=O)(OCC)/C(C#N)=C\c1cccc2ccccc12 | > 100 | > 100 | > 100 | > 100 | – | > 100 | > 100 | > 100 | – | – | – | – | – | – | – | – | – | 57.7 | – | > 100
20 | CC(C)OP(=O)(OC(C)C)C(N(C)C)P(=O)(OC(C)C)OC(C)C.[Cl][Sn]([Cl])([Cl])[c]1ccccc1 | 6.79 | 8.2 | 9.78 | > 100 | > 100 | 13.2 | 15.8 | 7.34 | 2.61 | 2.82 | 2.32 | 3.02 | 8.01 | 2.08 | > 100 | 3.16 | – | – | – | –
21 | COc1ccc2nc3ccc(OC)cc3c(SCCCN)c2c1 | – | 10.5 | 3.09 | – | – | 12.9 | – | 45.8 | – | 1.6 | – | 1.51 | – | 20.3 | – | 5.13 | 5.9 | 15.5 | 3.08 | 14.2
22 | CC(=O)NC1C(OCc2ccccc2)OC(COC(=O)CCCCCCCCCCNC(=O)c2cccc3c(=O)c4ccccc4[nH]c23)C(O)C1OC(C)C(=O)NC(C)C(=O)NC(CCC(N)=O)C(N)=O (stereo not drawn) | > 100 | – | > 100 | > 100 | > 100 | > 100 | > 100 | > 100 | – | – | – | – | – | – | – | – | – | – | – | –
23 | CC(C)c1ccc(/C=C(\NC(=O)c2ccccc2)c2nc3ccccc3[nH]2)cc1 | > 100 | > 100 | 89.5 | > 100 | > 100 | 86.9 | > 100 | – | – | – | – | – | – | – | – | – | – | – | – | –
24 | COc1cc(C2C3=C(COC3=O)N(CCO)c3cc4c(cc32)CCC4)cc(OC)c1O (stereo not drawn) | – | > 32.5 | 0.122 | – | – | > 32.5 | – | > 32.5 | – | 0.104 | – | 0.0432 | – | 0.213 | – | 0.365 | 0.106 | 11.4 | 0.141 | > 32.5
